From patent publication US20230144619A1, “SALT OF ARYLAMINOPURINE DERIVATIVE, PREPARATION METHOD THEREFOR AND USE THEREOF” (CSPC Zhongqi Pharmaceutical Technology (Shijiazhuang) Co., …, priority 2020, published 2023)
Where a name gives a salt, the structure may show the parent alone.

What was measured:
Hygroscopicity test = format: physicochemical; conditions: 25±1° C., relative humidity 80%±2% (DVS, 80% RH)
Experimental: Detection instrument: XPE105DR
(1) A dry stoppered glass weighing bottle was taken, placed in a suitable constant-temperature desiccator at 25° C. 1° C. (with a saturated solution of ammonium chloride or ammonium sulfate in the lower part) or an artificial climate box (with the set temperature of 25° C.±1° C. and the relative humidity of 80%±2%) on the day before the test, and precisely weighed and recorded as the weight (m1).
(2) An appropriate amount of the test sample was taken and spread in the above-mentioned weighing bottle. The thickness of the test sample was generally about 1 mm, and the bottle was precisely weighed and recorded as the weight (m2).
(3) The stopper was removed to open the weighing bottle, and the opened weighing bottle and the stopper were placed under the above-mentioned constant temperature and humidity conditions for 24 hours.
(4) The opened weighing bottle was stoppered, precisely weighed, and recorded as the weight (m3).
Percentage increase in mass=(m3−m2)/(m2−m1)×100%
(5) The description of hygroscopicity characteristics and the definition for the weight gain due to hygroscopicity:
Deliquescence: Sufficient water was absorbed to form a liquid.
Very hygroscopic: the weight gain due to hygroscopicity was not less than 15%.
Hygroscopic: the weight gain due to hygroscopicity was less than 15% but not less than 2%.
Slightly hygroscopic: the weight gain due to hygroscopicity was less than 2% but not less than 0.2%.
Not or nearly not hygroscopic: the weight gain due to hygroscopicity was less than 0.2%.
Appropriate amounts of the salt samples obtained from Examples 1 and 3-17 were subjected to the hygroscopicity test at a temperature of 25±1° C. under a relative humidity of 80%±2%, and the results were as follows: […]

DSC and TGA tests = format: physicochemical; conditions: onset temperature
Experimental: 6. Differential Scanning Calorimetry-Thermogravimetric Analysis (DSC-TGA)
Detection instrument: NETZSCH STA 449F3
Temperature range: 20° C.-350° C.;
Heating rate: 10.0 (K/min);
7. Differential Scanning Calorimetry (DSC)
Detection instrument: NETZSCH DSC 214 Polyma
Temperature range: 20° C.-250° C.;
Heating rate: 5.0 (K/min);
8. Thermogravimetric Analysis (TGA)
Detection instrument: METTLER and SDT Q600
The salts obtained in Examples 1 and 3-17 and the compound represented by Formula 1 were subjected to the DSC and TGA tests in media, and the test results were shown in the following table: […]

EGFR(h) = EGFR(h) (Homo sapiens, UniProt P00533); assay: Kinase inhibitory activity test (per WO2011/147066); format: biochemical
ALK = ALK (Homo sapiens, UniProt Q9UM73); assay: as above; format: biochemical; conditions: result in words
Experimental: (§1) The salt sample obtained from Example 1 was tested according to the kinase inhibitory activity test described in the biological assessment of the patent application WO2011/147066.

Abl(h) = Abl(h) (Homo sapiens, UniProt P00519); assay: as above; format: biochemical
Experimental: as §1

BTK = BTK (Homo sapiens, UniProt Q06187); assay: as above; format: biochemical; conditions: result in words
Experimental: as §1

FGFRl(h) = FGFRl(h) (Homo sapiens, UniProt P11362); assay: as above; format: biochemical
Experimental: as §1

FLT3(h) = FLT3(h) (Homo sapiens, UniProt P36888); assay: as above; format: biochemical
Experimental: as §1

FLT3-ITD(h) = FLT3-ITD(h) (Homo sapiens, UniProt P36888); assay: as above; format: biochemical
Experimental: as §1

Fyn(h) = Fyn(h) (Homo sapiens, UniProt P06241); assay: as above; format: biochemical
Experimental: as §1

Hck(h) = Hck(h) (Homo sapiens, UniProt P08631); assay: as above; format: biochemical
Experimental: as §1

KDR(h) = KDR(h) (Homo sapiens, UniProt P35968); assay: as above; format: biochemical
Experimental: as §1

Lck(h) = Lck(h) (Homo sapiens, UniProt P06239); assay: as above; format: biochemical
Experimental: as §1

Lyn(h) = Lyn(h) (Homo sapiens, UniProt P07948); assay: as above; format: biochemical
Experimental: as §1

MET = MET (Homo sapiens, UniProt P08581); assay: as above; format: biochemical; conditions: result in words
Experimental: as §1

PDGFRα = PDGFRα (Homo sapiens, UniProt P16234); assay: as above; format: biochemical; conditions: result in words
Experimental: as §1

Ret(h) = Ret(h) (Homo sapiens, UniProt P07949); assay: as above; format: biochemical
Experimental: as §1

VEGFR2 = VEGFR2 (Homo sapiens, UniProt P35968); assay: as above; format: biochemical; conditions: VEGFR2, result in words
Experimental: as §1

Yes = Yes (Homo sapiens, UniProt P07947); assay: as above; format: biochemical
Experimental: as §1

c-KIT = c-KIT (Homo sapiens, UniProt P10721); assay: as above; format: biochemical; conditions: result in words
Experimental: as §1

c-SRC(h) = c-SRC(h) (Homo sapiens, UniProt P12931); assay: as above; format: biochemical
Experimental: as §1

[1] = system: human non-small cell lung cancer HCC827; assay: In-vivo anti-tumor test, non-small cell lung cancer model; design: species or system nude mice; conditions: once daily oral administration for 30 days
Experimental: (§2) The salt sample obtained from Example 1 was tested (specifically for FLT3-ITD acute myeloid leukemia, non-small cell lung cancer with EGFR activating mutations, or Ph-positive chronic myeloid leukemia) according to the in-vivo anti-tumor test described in the biological assessment of the patent application WO2011/147066.

[2] = system: K562 (BCR-Abl gene rearrangement) subcutaneous tumor model; assay: In-vivo anti-tumor test, K562 subcutaneous tumor model; design: species or system nude mice; conditions: 70 mg/kg, once daily oral administration for 18 days
Experimental: as §2

Chain of c-KIT (P10721 26-976): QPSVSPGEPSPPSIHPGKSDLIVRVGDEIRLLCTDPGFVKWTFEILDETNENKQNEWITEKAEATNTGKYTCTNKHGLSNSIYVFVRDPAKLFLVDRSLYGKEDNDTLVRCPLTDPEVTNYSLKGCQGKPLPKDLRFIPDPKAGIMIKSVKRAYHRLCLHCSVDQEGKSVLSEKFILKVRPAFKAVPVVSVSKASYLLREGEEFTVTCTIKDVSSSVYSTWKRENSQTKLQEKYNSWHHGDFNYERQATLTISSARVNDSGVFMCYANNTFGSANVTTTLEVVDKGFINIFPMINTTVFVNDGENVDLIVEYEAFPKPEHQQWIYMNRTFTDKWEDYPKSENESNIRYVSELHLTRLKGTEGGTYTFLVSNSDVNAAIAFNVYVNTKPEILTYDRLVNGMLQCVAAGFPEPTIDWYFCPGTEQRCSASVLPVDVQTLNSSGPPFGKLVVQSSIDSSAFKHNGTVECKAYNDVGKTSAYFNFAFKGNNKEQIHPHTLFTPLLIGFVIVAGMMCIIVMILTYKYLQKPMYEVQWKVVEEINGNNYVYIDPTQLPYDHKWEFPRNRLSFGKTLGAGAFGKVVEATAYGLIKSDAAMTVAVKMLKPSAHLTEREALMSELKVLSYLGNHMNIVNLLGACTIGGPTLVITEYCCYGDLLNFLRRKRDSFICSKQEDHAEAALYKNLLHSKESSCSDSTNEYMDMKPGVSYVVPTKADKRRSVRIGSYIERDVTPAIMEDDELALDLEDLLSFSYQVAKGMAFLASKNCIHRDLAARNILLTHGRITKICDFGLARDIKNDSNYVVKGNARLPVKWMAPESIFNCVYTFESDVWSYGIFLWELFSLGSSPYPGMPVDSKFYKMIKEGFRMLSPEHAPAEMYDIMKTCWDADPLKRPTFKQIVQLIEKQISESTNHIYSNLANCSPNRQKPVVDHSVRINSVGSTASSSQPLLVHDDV
Chain of c-SRC(h) (P12931 whole entry): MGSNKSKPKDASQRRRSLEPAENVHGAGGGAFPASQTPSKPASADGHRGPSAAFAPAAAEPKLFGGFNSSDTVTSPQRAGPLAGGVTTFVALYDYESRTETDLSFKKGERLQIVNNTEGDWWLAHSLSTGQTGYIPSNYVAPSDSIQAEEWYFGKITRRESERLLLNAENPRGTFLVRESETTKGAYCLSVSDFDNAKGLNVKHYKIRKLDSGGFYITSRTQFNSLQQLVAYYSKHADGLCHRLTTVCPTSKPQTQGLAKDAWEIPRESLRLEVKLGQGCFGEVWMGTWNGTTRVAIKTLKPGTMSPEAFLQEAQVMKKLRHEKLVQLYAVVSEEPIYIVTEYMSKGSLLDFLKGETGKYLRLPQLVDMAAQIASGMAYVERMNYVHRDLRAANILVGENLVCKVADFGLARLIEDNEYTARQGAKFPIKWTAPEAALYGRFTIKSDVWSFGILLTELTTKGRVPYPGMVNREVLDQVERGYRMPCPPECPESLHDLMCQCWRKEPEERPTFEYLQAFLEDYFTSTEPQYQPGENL
Chain of BTK (Q06187 whole entry): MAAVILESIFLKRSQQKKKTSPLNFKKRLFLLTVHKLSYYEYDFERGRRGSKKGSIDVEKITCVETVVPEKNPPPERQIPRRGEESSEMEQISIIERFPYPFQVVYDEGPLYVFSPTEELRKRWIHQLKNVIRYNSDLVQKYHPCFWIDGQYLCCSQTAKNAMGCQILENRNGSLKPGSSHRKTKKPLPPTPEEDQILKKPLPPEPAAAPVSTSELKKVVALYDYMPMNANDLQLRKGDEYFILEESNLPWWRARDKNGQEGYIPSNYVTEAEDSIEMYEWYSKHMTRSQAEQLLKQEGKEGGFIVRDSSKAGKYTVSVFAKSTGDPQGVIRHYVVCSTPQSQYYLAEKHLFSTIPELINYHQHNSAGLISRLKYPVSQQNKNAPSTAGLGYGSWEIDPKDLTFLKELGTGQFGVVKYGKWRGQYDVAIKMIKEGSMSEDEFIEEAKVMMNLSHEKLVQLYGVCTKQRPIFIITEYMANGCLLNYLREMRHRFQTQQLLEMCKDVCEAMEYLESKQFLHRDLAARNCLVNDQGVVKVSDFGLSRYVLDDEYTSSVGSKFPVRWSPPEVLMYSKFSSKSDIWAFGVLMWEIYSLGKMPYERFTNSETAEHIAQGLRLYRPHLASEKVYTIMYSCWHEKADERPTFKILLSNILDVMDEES
Chain of KDR(h) (P35968 20-1356): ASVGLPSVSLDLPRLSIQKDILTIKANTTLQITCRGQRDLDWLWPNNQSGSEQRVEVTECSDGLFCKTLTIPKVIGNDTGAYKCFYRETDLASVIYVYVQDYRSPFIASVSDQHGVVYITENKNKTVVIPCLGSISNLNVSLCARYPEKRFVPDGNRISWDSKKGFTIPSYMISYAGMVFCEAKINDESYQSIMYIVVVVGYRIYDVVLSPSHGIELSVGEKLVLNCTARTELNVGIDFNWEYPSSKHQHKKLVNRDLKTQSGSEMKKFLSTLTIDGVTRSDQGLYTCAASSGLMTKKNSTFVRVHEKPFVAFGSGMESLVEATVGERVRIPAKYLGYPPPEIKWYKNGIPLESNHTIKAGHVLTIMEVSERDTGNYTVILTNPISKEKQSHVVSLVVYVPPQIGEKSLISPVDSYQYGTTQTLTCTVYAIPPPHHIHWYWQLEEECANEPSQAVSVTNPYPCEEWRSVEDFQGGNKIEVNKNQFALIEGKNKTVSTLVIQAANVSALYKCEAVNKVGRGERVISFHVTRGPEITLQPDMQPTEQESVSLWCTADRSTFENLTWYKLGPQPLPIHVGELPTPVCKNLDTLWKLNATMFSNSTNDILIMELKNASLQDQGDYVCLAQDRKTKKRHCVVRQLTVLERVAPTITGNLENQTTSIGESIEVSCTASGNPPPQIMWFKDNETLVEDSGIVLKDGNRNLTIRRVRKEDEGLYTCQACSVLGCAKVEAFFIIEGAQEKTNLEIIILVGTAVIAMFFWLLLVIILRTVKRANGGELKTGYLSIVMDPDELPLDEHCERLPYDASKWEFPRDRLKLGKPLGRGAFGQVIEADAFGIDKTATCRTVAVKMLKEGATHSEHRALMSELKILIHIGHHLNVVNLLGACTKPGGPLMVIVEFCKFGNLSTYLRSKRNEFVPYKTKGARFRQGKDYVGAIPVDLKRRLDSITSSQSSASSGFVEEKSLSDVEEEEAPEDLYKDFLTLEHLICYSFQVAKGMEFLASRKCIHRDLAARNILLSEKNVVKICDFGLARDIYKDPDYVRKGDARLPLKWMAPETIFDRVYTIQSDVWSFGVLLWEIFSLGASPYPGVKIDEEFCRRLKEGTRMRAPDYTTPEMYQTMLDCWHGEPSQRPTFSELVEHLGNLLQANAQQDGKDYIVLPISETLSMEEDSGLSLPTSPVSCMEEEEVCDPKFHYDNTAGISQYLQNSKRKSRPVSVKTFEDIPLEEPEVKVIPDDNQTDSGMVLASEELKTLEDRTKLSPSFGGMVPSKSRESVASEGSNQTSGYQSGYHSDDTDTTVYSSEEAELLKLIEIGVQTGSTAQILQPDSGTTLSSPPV
Chain of VEGFR2 (P35968 20-1356): as above
Chain of Abl(h) (P00519 whole entry): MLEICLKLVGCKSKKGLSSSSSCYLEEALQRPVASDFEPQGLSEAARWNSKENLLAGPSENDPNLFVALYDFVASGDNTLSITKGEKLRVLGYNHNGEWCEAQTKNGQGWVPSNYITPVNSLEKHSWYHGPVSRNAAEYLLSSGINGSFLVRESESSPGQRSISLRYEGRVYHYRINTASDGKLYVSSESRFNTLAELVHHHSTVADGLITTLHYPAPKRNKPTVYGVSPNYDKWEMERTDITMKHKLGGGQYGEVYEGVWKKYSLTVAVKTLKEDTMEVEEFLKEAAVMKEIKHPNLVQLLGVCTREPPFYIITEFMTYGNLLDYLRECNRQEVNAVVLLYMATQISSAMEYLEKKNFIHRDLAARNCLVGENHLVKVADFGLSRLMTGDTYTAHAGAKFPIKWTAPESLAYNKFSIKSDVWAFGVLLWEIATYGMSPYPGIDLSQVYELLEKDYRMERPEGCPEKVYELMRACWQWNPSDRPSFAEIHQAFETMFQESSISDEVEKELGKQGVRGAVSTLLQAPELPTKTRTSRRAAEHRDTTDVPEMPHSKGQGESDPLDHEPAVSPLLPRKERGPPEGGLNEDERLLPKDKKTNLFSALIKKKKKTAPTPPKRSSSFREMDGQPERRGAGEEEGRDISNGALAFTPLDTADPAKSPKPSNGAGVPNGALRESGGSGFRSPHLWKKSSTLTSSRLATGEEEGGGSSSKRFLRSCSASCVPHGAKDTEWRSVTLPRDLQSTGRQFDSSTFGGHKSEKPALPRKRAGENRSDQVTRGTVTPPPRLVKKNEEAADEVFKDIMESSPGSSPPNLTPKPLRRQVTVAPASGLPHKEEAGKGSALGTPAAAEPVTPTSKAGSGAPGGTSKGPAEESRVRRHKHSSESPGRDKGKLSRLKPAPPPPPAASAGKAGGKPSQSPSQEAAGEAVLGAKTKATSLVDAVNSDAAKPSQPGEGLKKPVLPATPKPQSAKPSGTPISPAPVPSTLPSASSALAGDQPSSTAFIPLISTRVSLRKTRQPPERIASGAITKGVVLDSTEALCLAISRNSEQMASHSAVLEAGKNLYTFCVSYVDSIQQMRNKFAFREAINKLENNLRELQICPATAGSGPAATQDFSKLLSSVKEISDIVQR

- Weight gain due to hygroscopicity (Hygroscopicity test): 0.7%
- TGA: starting to lose the acid (DSC and TGA tests): ~140 °C (see FIG. 19)
- TGA: starting to lose the water of crystallization (DSC and TGA tests): crystallization at about 40° C.;
- IC50 (EGFR(h)): 42 nM
- inhibition of kinase activity (ALK): could inhibit the activities
- IC50 (Abl(h)): 25 nM
- inhibition of kinase activity (BTK): could inhibit the activities
- IC50 (FGFRl(h)): 247 nM
- IC50 (FLT3(h)): 26 nM
- IC50 (FLT3-ITD(h)): 3 to 10 nM
- IC50 (Fyn(h)): 34 nM
- IC50 (Hck(h)): 93 nM
- IC50 (KDR(h)): 323 nM
- IC50 (Lck(h)): 37 nM
- IC50 (Lyn(h)): 7 nM
- inhibition of kinase activity (MET): could inhibit the activities
- inhibition of kinase activity (PDGFRα): could inhibit the activities
- IC50 (Ret(h)): 10 nM
- inhibition of kinase activity (VEGFR2): could inhibit the activities
- IC50 (Yes): 4 nM
- inhibition of kinase activity (c-KIT): could inhibit the activities
- IC50 (c-SRC(h)): 176 nM
Structure (SMILES): CC(C)n1c(Nc2cccnc2)nc2cnc(Nc3ccc(N4CCN(C)CC4)cc3)nc21 [Example 1, arylaminopurine derivative.trihydrochloride.pentahydrate]
- Hygroscopicity (Hygroscopicity test): Slightly hygroscopic (the weight gain due to hygroscopicity was less than 2% but not less than 0.2%.)
- growth of human non-small cell lung cancer HCC827 ([1]; 7.5, 15 and 30 mg/kg, dose dependence): dose-dependently inhibit the growth
- tumor size compared with the initial tumor ([1]; HCC827, 7.5 mg/kg): tumor shrinkage
- tumor size compared with the initial tumor ([1]; HCC827, 15 mg/kg): tumor shrinkage
- regression of the tumor ([1]; HCC827, 30 mg/kg): nearly complete regression of the tumor
- tumor size compared with the initial tumor ([1]; HCC827, 30 mg/kg): tumor shrinkage
- tumor growth [2]: effectively inhibit the tumor growth
- tumor inhibition rate [2]: 71.3%
